{
  "source": "the supplement of paper PMC10307832",
  "test_in_all_cases": "relative viability (nuclei count vs DMSO), 5 days (fraction); higher = more cells survive",
  "key": {"HCC-15": {"tested_on": "HCC-15", "how_it_was_run": "(§1)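 Dosing by pin tool came one day after lung cancer cell lines were seeded in 1536-well plates, using either one drug or a fixed anchor-drug dose plus five library-drug doses (not always all listed) in √10 steps. After 5 days, nuclei were counted on 4× images. Relative viability is treated-well nuclei count divided by vehicle-well nuclei count, and values are medians of duplicate plates.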"}, "HCC-827": {"tested_on": "HCC-827", "how_it_was_run": "as §1"}, "EKVX": {"tested_on": "EKVX", "how_it_was_run": "as §1"}, "H3255": {"tested_on": "H3255", "how_it_was_run": "as §1"}, "LCLC-103H": {"tested_on": "LCLC-103H", "how_it_was_run": "as §1"}, "UMC-11": {"tested_on": "UMC-11", "how_it_was_run": "as §1"}, "NCI-H1792": {"tested_on": "NCI-H1792", "how_it_was_run": "as §1"}, "NCI-H1650": {"tested_on": "NCI-H1650", "how_it_was_run": "as §1"}, "NCI-H2087": {"tested_on": "NCI-H2087", "how_it_was_run": "as §1"}, "NCI-H661": {"tested_on": "NCI-H661", "how_it_was_run": "as §1"}, "NCI-H1437": {"tested_on": "NCI-H1437", "how_it_was_run": "as §1"}, "NCI-H1651": {"tested_on": "NCI-H1651", "how_it_was_run": "as §1"}},
  "data": [
    {"compound": "O=c1[nH]c2ccccc2n1C1CCN(CCCC(c2ccc(F)cc2)c2ccc(F)cc2)CC1", "note": "[Pimozide] + CS(=O)(=O)N1CCN(Cc2cc3nc(-c4cccc5[nH]ncc45)nc(N4CCOCC4)c3s2)CC1 [Pictilisib] (partner 1 µM)", "values": [
      {"measurement": "relative viability", "setting": "HCC-15; first compound 0.253 µM", "result": 0.767},
      {"measurement": "relative viability", "setting": "HCC-15; first compound 0.8 µM", "result": 0.616},
      {"measurement": "relative viability", "setting": "HCC-15; first compound 2.53 µM", "result": 0.709},
      {"measurement": "relative viability", "setting": "HCC-15; first compound 8 µM", "result": 0.749},
      {"measurement": "relative viability", "setting": "HCC-827; first compound 0.253 µM", "result": 1.02},
      {"measurement": "relative viability", "setting": "HCC-827; first compound 0.8 µM", "result": 0.986},
      {"measurement": "relative viability", "setting": "HCC-827; first compound 2.53 µM", "result": 1.04},
      {"measurement": "relative viability", "setting": "HCC-827; first compound 8 µM", "result": 1.06},
      {"measurement": "relative viability", "setting": "EKVX; first compound 0.253 µM", "result": 0.349},
      {"measurement": "relative viability", "setting": "EKVX; first compound 0.8 µM", "result": 0.431},
      {"measurement": "relative viability", "setting": "EKVX; first compound 2.53 µM", "result": 0.409},
      {"measurement": "relative viability", "setting": "EKVX; first compound 8 µM", "result": 0.401},
      {"measurement": "relative viability", "setting": "H3255; first compound 0.253 µM", "result": 0.406},
      {"measurement": "relative viability", "setting": "H3255; first compound 0.8 µM", "result": 0.575},
      {"measurement": "relative viability", "setting": "H3255; first compound 2.53 µM", "result": 0.456},
      {"measurement": "relative viability", "setting": "H3255; first compound 8 µM", "result": 0.506},
      {"measurement": "relative viability", "setting": "LCLC-103H; first compound 0.08 µM", "result": 0.593},
      {"measurement": "relative viability", "setting": "LCLC-103H; first compound 0.253 µM", "result": 0.513},
      {"measurement": "relative viability", "setting": "LCLC-103H; first compound 0.8 µM", "result": 0.466},
      {"measurement": "relative viability", "setting": "LCLC-103H; first compound 2.53 µM", "result": 0.574},
      {"measurement": "relative viability", "setting": "LCLC-103H; first compound 8 µM", "result": 0.528},
      {"measurement": "relative viability", "setting": "UMC-11; first compound 0.08 µM", "result": 0.79},
      {"measurement": "relative viability", "setting": "UMC-11; first compound 0.253 µM", "result": 0.804},
      {"measurement": "relative viability", "setting": "UMC-11; first compound 0.8 µM", "result": 0.746},
      {"measurement": "relative viability", "setting": "UMC-11; first compound 2.53 µM", "result": 0.699},
      {"measurement": "relative viability", "setting": "UMC-11; first compound 8 µM", "result": 0.906},
      {"measurement": "relative viability", "setting": "NCI-H1792; first compound 0.08 µM", "result": 0.274},
      {"measurement": "relative viability", "setting": "NCI-H1792; first compound 0.253 µM", "result": 0.292},
      {"measurement": "relative viability", "setting": "NCI-H1792; first compound 0.8 µM", "result": 0.25},
      {"measurement": "relative viability", "setting": "NCI-H1792; first compound 2.53 µM", "result": 0.26},
      {"measurement": "relative viability", "setting": "NCI-H1792; first compound 8 µM", "result": 0.314},
      {"measurement": "relative viability", "setting": "NCI-H1650; first compound 0.08 µM", "result": 0.589},
      {"measurement": "relative viability", "setting": "NCI-H1650; first compound 0.253 µM", "result": 0.489},
      {"measurement": "relative viability", "setting": "NCI-H1650; first compound 0.8 µM", "result": 0.461},
      {"measurement": "relative viability", "setting": "NCI-H1650; first compound 2.53 µM", "result": 0.547},
      {"measurement": "relative viability", "setting": "NCI-H1650; first compound 8 µM", "result": 0.182},
      {"measurement": "relative viability", "setting": "NCI-H2087; first compound 0.08 µM", "result": 0.9},
      {"measurement": "relative viability", "setting": "NCI-H2087; first compound 0.253 µM", "result": 0.994},
      {"measurement": "relative viability", "setting": "NCI-H2087; first compound 0.8 µM", "result": 0.824},
      {"measurement": "relative viability", "setting": "NCI-H2087; first compound 2.53 µM", "result": 0.784},
      {"measurement": "relative viability", "setting": "NCI-H2087; first compound 8 µM", "result": 0.62},
      {"measurement": "relative viability", "setting": "NCI-H661; first compound 0.08 µM", "result": 0.447},
      {"measurement": "relative viability", "setting": "NCI-H661; first compound 0.253 µM", "result": 0.337},
      {"measurement": "relative viability", "setting": "NCI-H661; first compound 0.8 µM", "result": 0.454},
      {"measurement": "relative viability", "setting": "NCI-H661; first compound 2.53 µM", "result": 0.381},
      {"measurement": "relative viability", "setting": "NCI-H661; first compound 8 µM", "result": 0.408},
      {"measurement": "relative viability", "setting": "NCI-H1437; first compound 0.08 µM", "result": 0.543},
      {"measurement": "relative viability", "setting": "NCI-H1437; first compound 0.253 µM", "result": 0.464},
      {"measurement": "relative viability", "setting": "NCI-H1437; first compound 0.8 µM", "result": 0.499},
      {"measurement": "relative viability", "setting": "NCI-H1437; first compound 2.53 µM", "result": 0.421},
      {"measurement": "relative viability", "setting": "NCI-H1437; first compound 8 µM", "result": 0.406},
      {"measurement": "relative viability", "setting": "NCI-H1651; first compound 0.08 µM", "result": 0.62},
      {"measurement": "relative viability", "setting": "NCI-H1651; first compound 0.253 µM", "result": 0.506},
      {"measurement": "relative viability", "setting": "NCI-H1651; first compound 0.8 µM", "result": 0.685},
      {"measurement": "relative viability", "setting": "NCI-H1651; first compound 2.53 µM", "result": 0.543},
      {"measurement": "relative viability", "setting": "NCI-H1651; first compound 8 µM", "result": 0.465}
    ]}
  ]
}
